Laboratory results as given in paper PMC9486541, “Design, synthesis and cytotoxic evaluation of novel betulonic acid-diazine derivatives as potential antitumor agents” (Frontiers in Chemistry, 2022).
Read-outs that look alike come from different tables or passages of the source.

Experiments:
HepG2 = assay: MTT assay, HepG2 cells; format: cell-based, human; conditions: read-out: Half maximal inhibitory concentration (IC50) values, HepG2
Source text: (§1) The human hepatocellular carcinoma cell line (HepG2), human hepatocellular carcinoma cell line (Bel-7402), human cervical cancer cell line (Hela), human breast adenocarcinoma cell line (MCF-7) and Madin-Darby canine kidney cell line (MDCK) were obtained from the Chinese Academy of Medical Sciences and Peking Union Medical College. Cultures were maintained as monolayer in RPMI-1640/DMEM supplemented with 10% (v/v) fetal bovine serum (FBS) and 1% (v/v) penicillin/streptomycin (Thermo Technologies, New York, NY, United States) under a humidified atmosphere containing 5% CO2 at 37°C. The BoA derivatives and positive control drugs (BoA and DDP) under study were dissolved in DMSO (Sigma, St. Louis, MO, United States) and added at required concentrations to the cell culture. Cells incubated without the preparations served as the control.
(§2) The antitumor activity was assessed by MTT assay, as previously reported ([Fang et al., 2018]). Each tested compound and positive control drugs were dissolved in DMSO and diluted with the medium to the test concentrations, and the final concentration of DMSO in the culture medium was controlled at less than 0.5% (v/v). Briefly, cells were cultured at 37°C and dispersed in replicates in 96-well plates with HepG2, Bel-7402, HeLa, MCF-7 and MDCK for 24 h. Fresh medium along with compounds (BoAA-BoAE, BoA2A-BoA2G, BoA3A-BoA3G, BoA4A-BoA4G) at different concentrations was then added to individual wells and incubated for 72 h, with BoA and DDP as the positive control. Experiments on FXR expression were separated into three groups: Control (PBS), BoA2C (8 μM), and BoA2C (8 μM) + DY268 (10 μM) ([Giordano et al., 2016]), with three repeating wells in each. In separate wells, BoA2C and DY268 were introduced and cultured for 72 h. After 72 h, the cell was incubated with MTT solution (0.5 mg/ml) for an additional 4 h at 37°C. The produced formazan crystals were solubilized with DMSO, and the optical density of solution was measured at 570 nm using a plate reader (BIORAD 550 spectrophotometer, Bio-rad Life Science Development Ltd., Beijing, China). Wells without drugs were used to be blanks. The IC50 values were defined as the concentration of compounds that produced a 50% proliferation inhibition of surviving cells and calculated using the Graph Pad Prism 5. The inhibitory rate was calculated in the following Equation 1, where OD is the optical density: % inhibition=[1−(OD Sample group−OD Blank group)/(OD Control group−OD Blank group)]×100% (1)

MDCK = assay: MTT assay, MDCK normal cell line; format: cell-based, canine; conditions: 72 h incubation, normal cell line, read-out: Half maximal inhibitory concentration (IC50) values, MDCK
Source text: as §1, §2

Hela = assay: MTT assay, Hela cells; format: cell-based, human; conditions: 72 h incubation, read-out: Half maximal inhibitory concentration (IC50) values, Hela
Source text: as §1, §2

MCF-7 = assay: MTT assay, MCF-7 cells; format: cell-based, human; conditions: read-out: Half maximal inhibitory concentration (IC50) values, MCF-7
Source text: as §1, §2

Bel-7402 = assay: MTT assay, Bel-7402 cells; format: cell-based, human; conditions: read-out: Half maximal inhibitory concentration (IC50) values, Bel-7402
Source text: as §1, §2

[1] = Homo sapiens, HepG2, 72 h incubation
[2] = Homo sapiens, MCF7, 72 h incubation
[3] = Homo sapiens, Bel-7402, 72 h incubation

Row | Structure (SMILES) | IC50 (HepG2; [1]) | melting point | IC50 (MDCK; Canis lupus familiaris, MDCK) | IC50 (Hela; Homo sapiens, HeLa) | IC50 (MCF-7; [2]) | IC50 (Bel-7402; [3]) | IC50 (HepG2; 72 h incubation) | IC50 (MDCK) | IC50 (Hela) | IC50 (MCF-7; 72 h incubation) | IC50 (Bel-7402; 72 h incubation)
1 | C=C(C)[C@@H]1CC[C@]2(C(=O)OCCOC(=O)c3cnccn3)CC[C@]3(C)[C@H](CC[C@@H]4[C@@]5(C)CCC(=O)C(C)(C)[C@@H]5CC[C@]43C)[C@@H]12 [BoA2A, (Pyrazin-2-acyloxy)-ethyl-3-oxolup-20(29)-en-28-oate] | 13.7 ± 0.25 µM | 85 to 87 °C | > 30 µM | 25 ± 0.97 µM | 9.86 ± 0.36 µM | 8.76 ± 0.84 µM | – | – | – | – | –
2 | C=C(C)[C@@H]1CC[C@]2(C(=O)OCCOC(=O)c3nccnc3C)CC[C@]3(C)[C@H](CC[C@@H]4[C@@]5(C)CCC(=O)C(C)(C)[C@@H]5CC[C@]43C)[C@@H]12 [BoA2B, (3-Methylpyrazin-2-acyloxy)-ethyl-3-oxolup-20(29)-en-28-oate] | 13.4 ± 1.82 µM | 60 to 62 °C | > 30 µM | 15.5 ± 0.81 µM | > 30 µM | 10.1 ± 1.4 µM | – | – | – | – | –
3 | C=C(C)[C@@H]1CC[C@]2(C(=O)OCCOC(=O)c3cncc(C)n3)CC[C@]3(C)[C@H](CC[C@@H]4[C@@]5(C)CCC(=O)C(C)(C)[C@@H]5CC[C@]43C)[C@@H]12 [BoA2D, (6-Methylpyrazin-2-acyloxy)-ethyl-3-oxolup-20(29)-en-28-oate] | 7.32 ± 2.88 µM | 139 to 141 °C | > 30 µM | 14.9 ± 1.84 µM | 8.32 ± 1.28 µM | 8.22 ± 0.43 µM | – | – | – | – | –
4 | C=C(C)[C@@H]1CC[C@]2(C(=O)OCCOC(=O)c3ccncn3)CC[C@]3(C)[C@H](CC[C@@H]4[C@@]5(C)CCC(=O)C(C)(C)[C@@H]5CC[C@]43C)[C@@H]12 [BoA2F] | > 30 µM | 72 to 74 °C | 12.5 ± 1.22 µM | 15.2 ± 1.07 µM | 29.7 ± 0.37 µM | > 30 µM | – | – | – | – | –
5 | C=C(C)[C@@H]1CC[C@]2(C(=O)OCCOC(=O)c3ccnnc3)CC[C@]3(C)[C@H](CC[C@@H]4[C@@]5(C)CCC(=O)C(C)(C)[C@@H]5CC[C@]43C)[C@@H]12 [BoA2G] | > 30 µM | 130 to 132 °C | 13 ± 0.46 µM | 5.81 ± 0.24 µM | > 30 µM | 24.8 ± 2.43 µM | – | – | – | – | –
6 | C=C(C)[C@@H]1CC[C@]2(C(=O)OCCCOC(=O)c3cnccn3)CC[C@]3(C)[C@H](CC[C@@H]4[C@@]5(C)CCC(=O)C(C)(C)[C@@H]5CC[C@]43C)[C@@H]12 [BoA3A, (Pyrazin-2-acyloxy)-propyl-3-oxolup-20(29)-en-28-oate] | 4.82 ± 0.3 µM | 74 to 76 °C | > 30 µM | 20.4 ± 0.56 µM | 6.85 ± 1.82 µM | 6.09 ± 0.12 µM | – | – | – | – | –
7 | C=C(C)[C@@H]1CC[C@]2(C(=O)OCCCOC(=O)c3nccnc3C)CC[C@]3(C)[C@H](CC[C@@H]4[C@@]5(C)CCC(=O)C(C)(C)[C@@H]5CC[C@]43C)[C@@H]12 [BoA3B, (3-Methylpyrazin-2-acyloxy)-propyl-3-oxolup-20(29)-en-28-oate] | 13.2 ± 1.2 µM | 54 to 55 °C | > 30 µM | 15.7 ± 2.15 µM | 27.9 ± 1.06 µM | 14.2 ± 2.1 µM | – | – | – | – | –
8 | C=C(C)[C@@H]1CC[C@]2(C(=O)OCCCOC(=O)c3cnc(C)cn3)CC[C@]3(C)[C@H](CC[C@@H]4[C@@]5(C)CCC(=O)C(C)(C)[C@@H]5CC[C@]43C)[C@@H]12 [BoA3C, (5-Methylpyrazin-2-acyloxy)-propyl-3-oxolup-20(29)-en-28-oate] | > 30 µM | 57 to 58 °C | > 30 µM | 30 ± 2.65 µM | 10 ± 0.19 µM | 9.37 ± 1.31 µM | – | – | – | – | –
9 | C=C(C)[C@@H]1CC[C@]2(C(=O)OCCCOC(=O)c3cncc(C)n3)CC[C@]3(C)[C@H](CC[C@@H]4[C@@]5(C)CCC(=O)C(C)(C)[C@@H]5CC[C@]43C)[C@@H]12 [BoA3D, (6-Methylpyrazin-2-acyloxy)-propyl-3-oxolup-20(29)-en-28-oate] | 8.65 ± 0.6 µM | 59 to 60 °C | 17 ± 3.01 µM | 9.5 ± 0.28 µM | 5.6 ± 0.25 µM | 6.42 ± 0.66 µM | – | – | – | – | –
10 | C=C(C)[C@@H]1CC[C@]2(C(=O)OCCCOC(=O)c3nc(C)c(C)nc3C)CC[C@]3(C)[C@H](CC[C@@H]4[C@@]5(C)CCC(=O)C(C)(C)[C@@H]5CC[C@]43C)[C@@H]12 [BoA3E, (3,5,6-Trimethylpyrazin-2-acyloxy)-propyl-3-oxolup-20(29)-en-28-oate] | 20.2 ± 0.53 µM | 57 to 59 °C | > 30 µM | 10.1 ± 0.15 µM | 29.5 ± 0.89 µM | 11.2 ± 1.55 µM | – | – | – | – | –
11 | C=C(C)[C@@H]1CC[C@]2(C(=O)OCCCOC(=O)c3ccncn3)CC[C@]3(C)[C@H](CC[C@@H]4[C@@]5(C)CCC(=O)C(C)(C)[C@@H]5CC[C@]43C)[C@@H]12 [BoA3F] | > 30 µM | 50 to 52 °C | 17.9 ± 0.82 µM | 21.1 ± 6.66 µM | > 30 µM | 22.3 ± 5.85 µM | – | – | – | – | –
12 | C=C(C)[C@@H]1CC[C@]2(C(=O)OCCCOC(=O)c3ccnnc3)CC[C@]3(C)[C@H](CC[C@@H]4[C@@]5(C)CCC(=O)C(C)(C)[C@@H]5CC[C@]43C)[C@@H]12 [BoA3G] | > 30 µM | 68 to 71 °C | 18.5 ± 0.42 µM | 4 ± 0.32 µM | 13.4 ± 0.51 µM | 25.2 ± 2.44 µM | – | – | – | – | –
13 | C=C(C)[C@@H]1CC[C@]2(C(=O)OCCCCOC(=O)c3cnc(C)cn3)CC[C@]3(C)[C@H](CC[C@@H]4[C@@]5(C)CCC(=O)C(C)(C)[C@@H]5CC[C@]43C)[C@@H]12 [BoA4C, (5-Methylpyrazin-2-acyloxy)-butyl-3-oxolup-20(29)-en-28-oate] | 22.2 ± 1.76 µM | – | > 30 µM | 17.9 ± 0.45 µM | 9.88 ± 1.49 µM | 5.53 ± 0.46 µM | – | – | – | – | –
14 | C=C(C)[C@@H]1CC[C@]2(C(=O)OCCCCOC(=O)c3cncc(C)n3)CC[C@]3(C)[C@H](CC[C@@H]4[C@@]5(C)CCC(=O)C(C)(C)[C@@H]5CC[C@]43C)[C@@H]12 [BoA4D, (6-Methylpyrazin-2-acyloxy)-butyl-3-oxolup-20(29)-en-28-oate] | > 30 µM | – | > 30 µM | 15.7 ± 2.15 µM | > 30 µM | 16.3 ± 0.9 µM | – | – | – | – | –
15 | C=C(C)[C@@H]1CC[C@]2(C(=O)OCCCCOC(=O)c3ccncn3)CC[C@]3(C)[C@H](CC[C@@H]4[C@@]5(C)CCC(=O)C(C)(C)[C@@H]5CC[C@]43C)[C@@H]12 [BoA4F] | 30.2 ± 1.51 µM | – | 27.22 ± 0.25 µM | 25.9 ± 0.57 µM | 24.5 ± 5.17 µM | > 30 µM | – | – | – | – | –
16 | C=C(C)[C@@H]1CC[C@]2(C(=O)OCCCCOC(=O)c3ccnnc3)CC[C@]3(C)[C@H](CC[C@@H]4[C@@]5(C)CCC(=O)C(C)(C)[C@@H]5CC[C@]43C)[C@@H]12 [BoA4G, (Pyridazin-2-acyloxy)-butyl-3-oxolup-20(29)-en-28-oate] | 29.27 ± 0.22 µM | – | 16.9 ± 1.03 µM | 7.46 ± 1.99 µM | 12.8 ± 0.15 µM | 19.4 ± 1.2 µM | – | – | – | – | –
17 | C=C(C)[C@@H]1CC[C@]2(C(=O)O)CC[C@]3(C)[C@H](CC[C@@H]4[C@@]5(C)CCC(=O)C(C)(C)[C@@H]5CC[C@]43C)[C@@H]12 [BoA, betulonic acid] | > 30 µM | – | > 30 µM | 27 ± 1.06 µM | > 30 µM | > 30 µM | – | – | – | – | –
18 | C=C(C)[C@@H]1CC[C@]2(C(=O)OCc3cnccn3)CC[C@]3(C)[C@H](CC[C@@H]4[C@@]5(C)CCC(=O)C(C)(C)[C@@H]5CC[C@]43C)[C@@H]12 [BoAA, Pyrazin-2-ylmethyl-3-oxolup-20(29)-en-28-oate] | 13.5 ± 1.8 µM | – | > 30 µM | 18.3 ± 1.63 µM | 15.7 ± 0.55 µM | 8.16 ± 2.08 µM | – | – | – | – | –
19 | N.N.[Cl][Pt][Cl] [DDP, cisplatin, reference compound] | – | – | – | – | – | – | 5.23 ± 1.03 µM | 13.7 ± 1.45 µM | 9.84 ± 2.54 µM | 6.98 ± 0.32 µM | 8.86 ± 1.32 µM
